Source: patent US10597314B2, “Fatty acid biodispersant and methods of use” (General Electric Company, priority 2013, dated 2020)

Legend:
biofilms = assay: Applicant's testing of the amount of cis-2-decenoic acid needed for sufficient activity; assay type: cell-based; conditions: relative to the Article's 1.0 nM to 10 mM
From the text: An article titled A Fatty Acid Messenger Is Responsible for Inducing Dispersion in Microbial Biofilms, published in March 2009 in the Journal of Bacteriology (“Article”) is incorporated by reference herein in its entirety. The Article discloses that cis-2-decenoic acid may be used to disperse biofilms.

Microbial Biofilms = conditions: as stated in the Article; cited from earlier work

SMILES	actual amount needed for sufficient activity (biofilms)	amount needed for activity (biofilm dispersion) (Microbial Biofilms)
CCCCCCC/C=C\C(=O)O [cis-2-decenoic acid]	several times more than that	–
CCCCCCC/C=C/C(=O)O [trans-2-decenoic acid]	–	in the mM range
